Experimental data published in the supplement of paper PMC9663587.

How the values were obtained:
[1] = compound: CCc1cnn2c(NCc3ccc[n+]([O-])c3)cc(N3CCCC[C@H]3CCO)nc12
LEE011/Ribociclib [2] = compound: T1, CN(C)C(=O)c1cc2cnc(Nc3ccc(N4CCNCC4)cn3)nc2n1C1CCCC1 [LEE011/Ribociclib]
Doxorubicin = compound: COc1cccc2c1C(=O)c1c(O)c3c(c(O)c1C2=O)C[C@@](O)(C(=O)CO)C[C@@H]3O[C@H]1C[C@H](N)[C@H](O)[C@H](C)O1 [Doxorubicin]
Pictilisib/GDC0941 = compound: CS(=O)(=O)N1CCN(Cc2cc3nc(-c4cccc5[nH]ncc45)nc(N4CCOCC4)c3s2)CC1 [Pictilisib/GDC0941]
Ceritinib/LDK378 = compound: Cc1cc(Nc2ncc(Cl)c(Nc3ccccc3S(=O)(=O)C(C)C)n2)c(OC(C)C)cc1C1CCNCC1 [Ceritinib/LDK378]
[3] = compound: Cc1nn(C)c(COc2ccc(N3CCN(S(=O)(=O)N(C)C)CC3)cc2)c1-c1cccc2c(CCCOc3cccc4ccccc34)c(C(=O)O)n(CCN3CCOCC3)c12
YKL-5-124 = compound: C=CC(=O)Nc1ccc(C(=O)Nc2[nH]nc3c2CN(C(=O)N[C@H](CN(C)C)c2ccccc2)C3(C)C)cc1 [YKL-5-124]; assay: increase in dead-cell fraction, 72 h; higher = more death;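 also: breast cancer cell lines in 384-well plates, stained with Hoechst plus LIVE/DEAD far red dye and imaged, cells above an LDR intensity threshold counted dead, Hoechst-negative corpses included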
BSJ-03-123 = compound: CC(=O)c1c(C)c2cnc(Nc3ccc(N4CCN(CCOCCOCCOCCNC(=O)COc5cccc6c5C(=O)N(C5CCC(=O)NC5=O)C6=O)CC4)cn3)nc2n(C2CCCC2)c1=O [BSJ-03-123]; assay: as above
[4] = compound: CC(=O)c1c(C)c2cnc(Nc3ccc(N4CCNCC4)cn3)nc2n(C2CCCC2)c1=O; assay: as above
[5] = compound: CCN1CCN(Cc2ccc(Nc3ncc(F)c(-c4cc(F)c5nc(C)n(C(C)C)c5c4)n3)nc2)CC1; assay: as above
Neratinib/HKI272 = compound: CCOc1cc2ncc(C#N)c(Nc3ccc(OCc4ccccn4)c(Cl)c3)c2cc1NC(=O)/C=C/CN(C)C [Neratinib/HKI272]; assay: as above
[6] = compound: CCc1cnn2c(NCc3ccc[n+]([O-])c3)cc(N3CCCC[C@H]3CCO)nc12; assay: as above
LEE011/Ribociclib [7] = compound: T1, LEE011/Ribociclib; assay: as above
THZ531 = compound: CN(C)C/C=C/C(=O)Nc1ccc(C(=O)N2CCC[C@@H](Nc3ncc(Cl)c(-c4c[nH]c5ccccc45)n3)C2)cc1 [THZ531]; assay: as above
THZ1 = compound: CN(C)C/C=C/C(=O)Nc1ccc(C(=O)Nc2cccc(Nc3ncc(Cl)c(-c4c[nH]c5ccccc45)n3)c2)cc1 [THZ1]; assay: as above
Flavopiridol = compound: CN1CC[C@H](c2c(O)cc(O)c3c(=O)cc(-c4ccccc4Cl)oc23)[C@H](O)C1 [Flavopiridol]; assay: as above
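For GR50, 72 h in this document: breast cancer and non-malignant breast epithelial cell lines, Deep Dye Drop or Dye Drop imaging, nine half-log doses, GR normalized to time-zero plates and DMSO-only controls.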

With EVSAT the “GR50, 72 h” value [1] was 0.0263 µM, the “GR50, 72 h” value (LEE011/Ribociclib [2]) was greater than 10 µM and the “GR50, 72 h” value (Doxorubicin) was 0.00911 µM. The “GR50, 72 h” value (Pictilisib/GDC0941) was 0.621 µM, the “GR50, 72 h” value (Ceritinib/LDK378) was 6.18 µM and the “GR50, 72 h” value [3] was greater than 10 µM. The “increase in dead-cell fraction” value (YKL-5-124; 0.001 µM) was 0.0967, the “increase in dead-cell fraction” value (YKL-5-124; 0.003162 µM) was 0.0973 and the “increase in dead-cell fraction” value (YKL-5-124; 0.01 µM) was 0.147. The “increase in dead-cell fraction” value (YKL-5-124; 0.03162 µM) was 0.16, the “increase in dead-cell fraction” value (YKL-5-124; 0.1 µM) was 0.143 and the “increase in dead-cell fraction” value (YKL-5-124; 0.3162 µM) was 0.185. For the same cell line, the “increase in dead-cell fraction” value (YKL-5-124; 1 µM) was 0.183, the “increase in dead-cell fraction” value (YKL-5-124; 3.162 µM) was 0.204 and the “increase in dead-cell fraction” value (YKL-5-124; 10 µM) was 0.697. The “increase in dead-cell fraction” value (BSJ-03-123; 0.001 µM) was -0.0001, the “increase in dead-cell fraction” value (BSJ-03-123; 0.003162 µM) was 0.0011 and the “increase in dead-cell fraction” value (BSJ-03-123; 0.01 µM) was 0.0093. The “increase in dead-cell fraction” value (BSJ-03-123; 0.03162 µM) was 0.0004, the “increase in dead-cell fraction” value (BSJ-03-123; 0.1 µM) was 0.0074 and the “increase in dead-cell fraction” value (BSJ-03-123; 0.3162 µM) was -0.0005. The “increase in dead-cell fraction” value (BSJ-03-123; 1 µM) was 0.0163, the “increase in dead-cell fraction” value (BSJ-03-123; 3.162 µM) was 0.0309 and the “increase in dead-cell fraction” value (BSJ-03-123; 10 µM) was 0.221. The “increase in dead-cell fraction” value ([4]; 0.0003162 µM) was 0.0003, the “increase in dead-cell fraction” value ([4]; 0.001 µM) was -0.0039 and the “increase in dead-cell fraction” value ([4]; 0.003162 µM) was -0.002. For the same cell line, the “increase in dead-cell fraction” value ([4]; 0.01 µM) was -0.0026, the “increase in dead-cell fraction” value ([4]; 0.03162 µM) was 0.0033 and the “increase in dead-cell fraction” value ([4]; 0.1 µM) was 0.0048. The “increase in dead-cell fraction” value ([4]; 0.3162 µM) was 0.0108, the “increase in dead-cell fraction” value ([4]; 1 µM) was 0.0176 and the “increase in dead-cell fraction” value ([4]; 3.162 µM) was 0.0205. For the same cell line, the “increase in dead-cell fraction” value ([5]; 0.001 µM) was -0.0003, the “increase in dead-cell fraction” value ([5]; 0.003162 µM) was -0.0008 and the “increase in dead-cell fraction” value ([5]; 0.01 µM) was -0.0013. The “increase in dead-cell fraction” value ([5]; 0.03162 µM) was 0.0044, the “increase in dead-cell fraction” value ([5]; 0.1 µM) was 0.0048 and the “increase in dead-cell fraction” value ([5]; 0.3162 µM) was 0.0122. The “increase in dead-cell fraction” value ([5]; 1 µM) was 0.0226, the “increase in dead-cell fraction” value ([5]; 3.162 µM) was 0.0299 and the “increase in dead-cell fraction” value ([5]; 10 µM) was 0.798. The “increase in dead-cell fraction” value (Neratinib/HKI272; 0.0003162 µM) was -0.0012, the “increase in dead-cell fraction” value (Neratinib/HKI272; 0.001 µM) was -0.002 and the “increase in dead-cell fraction” value (Neratinib/HKI272; 0.003162 µM) was -0.0011. The “increase in dead-cell fraction” value (Neratinib/HKI272; 0.01 µM) was -0.0031, the “increase in dead-cell fraction” value (Neratinib/HKI272; 0.03162 µM) was -0.0026 and the “increase in dead-cell fraction” value (Neratinib/HKI272; 0.1 µM) was -0.0027. The “increase in dead-cell fraction” value (Neratinib/HKI272; 0.3162 µM) was -0.002, the “increase in dead-cell fraction” value (Neratinib/HKI272; 1 µM) was 0.0019 and the “increase in dead-cell fraction” value (Neratinib/HKI272; 3.162 µM) was 0.0083. The “increase in dead-cell fraction” value ([6]; 0.0001 µM) was -0.0004, the “increase in dead-cell fraction” value ([6]; 0.0003162 µM) was 0.0006 and the “increase in dead-cell fraction” value ([6]; 0.001 µM) was 0.0006. The “increase in dead-cell fraction” value ([6]; 0.003162 µM) was -0.003, the “increase in dead-cell fraction” value ([6]; 0.01 µM) was -0.0037 and the “increase in dead-cell fraction” value ([6]; 0.03162 µM) was 0.107. The “increase in dead-cell fraction” value (LEE011/Ribociclib [7]; 0.001 µM) was 0.0012, the “increase in dead-cell fraction” value (LEE011/Ribociclib [7]; 0.003162 µM) was 0.0024 and the “increase in dead-cell fraction” value (LEE011/Ribociclib [7]; 0.01 µM) was 0.0001. The “increase in dead-cell fraction” value (LEE011/Ribociclib [7]; 0.03162 µM) was 0.0046, the “increase in dead-cell fraction” value (LEE011/Ribociclib [7]; 0.1 µM) was 0.0067 and the “increase in dead-cell fraction” value (LEE011/Ribociclib [7]; 0.3162 µM) was 0.0048. The “increase in dead-cell fraction” value (LEE011/Ribociclib [7]; 1 µM) was 0.0025, the “increase in dead-cell fraction” value (LEE011/Ribociclib [7]; 3.162 µM) was 0.0016 and the “increase in dead-cell fraction” value (LEE011/Ribociclib [7]; 10 µM) was 0.0146. The “increase in dead-cell fraction” value (THZ531; 0.0001 µM) was 0.0033, the “increase in dead-cell fraction” value (THZ531; 0.0003162 µM) was -0.0022 and the “increase in dead-cell fraction” value (THZ531; 0.001 µM) was -0.0014. For the same cell line, the “increase in dead-cell fraction” value (THZ531; 0.003162 µM) was -0.0011, the “increase in dead-cell fraction” value (THZ531; 0.01 µM) was 0.0002 and the “increase in dead-cell fraction” value (THZ531; 0.03162 µM) was -0.0005. The “increase in dead-cell fraction” value (THZ531; 0.1 µM) was 0.0333, the “increase in dead-cell fraction” value (THZ531; 0.3162 µM) was 0.372 and the “increase in dead-cell fraction” value (THZ1; 0.0001 µM) was -0.0011. The “increase in dead-cell fraction” value (THZ1; 0.0003162 µM) was 0.0011, the “increase in dead-cell fraction” value (THZ1; 0.001 µM) was 0.0012 and the “increase in dead-cell fraction” value (THZ1; 0.003162 µM) was 0.0031. For the same cell line, the “increase in dead-cell fraction” value (THZ1; 0.01 µM) was 0.0078, the “increase in dead-cell fraction” value (THZ1; 0.03162 µM) was 0.0292 and the “increase in dead-cell fraction” value (THZ1; 0.1 µM) was 0.181. The “increase in dead-cell fraction” value (THZ1; 0.3162 µM) was 0.641, the “increase in dead-cell fraction” value (Flavopiridol; 0.0001 µM) was 0 and the “increase in dead-cell fraction” value (Flavopiridol; 0.0003162 µM) was -0.0027. For the same cell line, the “increase in dead-cell fraction” value (Flavopiridol; 0.001 µM) was -0.0029, the “increase in dead-cell fraction” value (Flavopiridol; 0.003162 µM) was 0.0039 and the “increase in dead-cell fraction” value (Flavopiridol; 0.01 µM) was 0.0011. The “increase in dead-cell fraction” value (Flavopiridol; 0.03162 µM) was 0.0016, the “increase in dead-cell fraction” value (Flavopiridol; 0.1 µM) was 0.0006 and the “increase in dead-cell fraction” value (Flavopiridol; 0.3162 µM) was 0.0111. The “increase in dead-cell fraction” value (Flavopiridol; 1 µM) was 0.85.
